The subject of one test is Streptococcus spp. The test can be described thus: Susceptibility (MIC), agar dilution, Streptococcus spp. Type of test: cell-based. To be noted: 6 from 9 Streptococcus strains. As for the experimental part: The investigations included more than hundred strains isolated from the oral cavity: : anaerobes, microaerophilic bacteria, aerobes, Streptococcus spp. and yeast like fungi. The microorganisms were isolated from saliva, mucosal membrane, gingival pockets and caries decay. The susceptibility (MIC) of bacteria and yeastlike fungi were determined by means of plate dilution technique in agar.
The investigated samples were dissolved in sterile distilled water (immediately before the experiment) to obtain the following concentrations: 3.5, 1.7, 0.8, 0.4 and 0.2 mg/ml and were added into appropriate agar. The plates were inoculated using a Steers multipoint inoculator. Inoculum contained 10^6 CFU/spot. […]
Anaerobes. The susceptibility of bacteria was determined by means of the agar dilution methods with Brucella agar supplemented with 5% defibrinated sheep's blood, menadione and hemin. […] The susceptibility of bacteria was determined by means of the agar dilution methods with Brucella agar supplemented with 5% sheep's blood. […] The susceptibility of bacteria was determined by means of the agar dilution methods with Mueller-Hinton agar supplemented with 5% sheep's blood. […] The susceptibility to investigated samples was determined by means of the plate dilution technique in Mueller-Hinton agar. […]

The nature of test [1]: In-vivo: radiated tooth samples treated with protector, 5 days in the oral cavity, Knoop hardness. Also noted: species or system human. To be noted: for delta: change of hardness (increase of depth of penetration): radiation + 5 days in oral cavity, 0.1% fluoride or 4% bisphosphonate e-polylysine with CaCl2 and KH2PO4. The source says:
A device is constructed that can contain up to 6 experimental tooth samples for positioning in the oral cavity. […] The construction of the experimental tooths samples is outlined in chapter C.2.“Results; in-vivo experiments”. In the oral cavity, the tooth samples are positioned in the device in such a way that the enamel surfaces are subjected to physical contact with the tongue and are submerged in saliva. […] In experiments where the device is residing a long time period in the oral cavity (5 days and more), a metal network is positioned just above the surface of the experimental teeth, in order to provide support for the bacteria and stimulate it's growth path. It is also possible to measure the residual protection competence by removing the tooth samples from the oral cavity at the end of the selected residence time and treating them with acid under laboratory conditions.
The device was positioned after the lower jaw in the oral cavity for a period of five days. After removal from the oral cavity, the samples where cleaned and the hardness was measured.
Tooth samples have been cut in horizontal slices (thickness: 0.3 to 1 mm) with a Leitz 1600 tooth cutter with horizontal cutting blade; the slices are cut manually (with a bore) into small tooth samples that contain a small part of the original tooth surface. The tooth sample is positioned in a small plastic tube, that has been cut from a long plastic tube with 6 mm external diameter. The length of the tube is 3 to 6 mm. The inner part of the tube is filled with a polymer that hardens under light (Photoclearfil Bright; Kuraray). The tooth sample is positioned in the soft polymer inside the tube, in such a way that the original tooth surface is just surfacing above the tube. Finally the polymer is hardened with a light source. The tooth surface is polished with Struers silicon carbid paper (800-4000) and the hardness is measured 5 times on each of the samples under the Letiz Wetzlar microscope (weight on needle: 50 p). Tooth samples with a maximum average depth of penetration of 43 μm are retained for use in the oral cavity.
Tooth samples have been subjected to a radiation dose that is equal to the amount that is given to patients with oral cancer (20 Gray) and have been sterilized. […] A drop of the solution was positioned on the tooth surface and allowed to reside for a period of 30 minutes at 37 C.; the procedure was repeated after removal of the drop with pressured air. Finally the drop was removed, the tooth was dried on air and fixed to the device. In total six tooth samples have been fixed to the device and positioned in the oral cavity after the lower jaw. It remained in the oral cavity for a period of 5 days (day and night). After completion of the required residence time, the device was removed from the oral cavity and the experimental teeth where separated from the device and washed. The hardness was measured according to the Knoop method, six times on each of the tooth samples.
B: the stage at which the hardness of the tooth surface has been measured with the Knoop method. (before the treatment; after radiation and before addition of protector formulation to the surface; after addition of protector to the surface of the tooth and after residing five days in the oral cavity).
B: the stage at which the hardness of the tooth surface has been measured with the Knoop method.

The nature of test [2]: In-vivo: residual protection, radiated samples after 5 days in oral cavity treated with acetic acid. More on the design: species or system human. An excerpt:
N: number of tooth samples A: hardness(μm) after radiation and 5 days residence in the oral cavity B: hardness after radiation and 5 days in the oral cavity and treatment with acetic acid

“bisphosphonylated epsilon-polylysine [bisphosphonylated e-polylysine]”: the “concentration inhibiting growth (MIC)” value in the test on Streptococcus spp. worked out at 1700 µg/mL. Further, the “Mean hardness (depth of penetration)” value in test [1] (after protector and 5 days oral cavity, 0.1% NaF or 4% bisphosphonate e-polylysine with CaCl2 and KH2PO4) is reported as 41.97 μm; in test [1] (after radiation, before addition of protector (baseline of group)) it was 41.02 μm; in test [1] (start, before treatment (baseline of group)), 40.87 μm. The “delta: change of hardness” value in test [1] (after radiation, before addition of the formulation) is 0.15 μm. The “delta: change of hardness (increase of depth of penetration)” value in test [1] (listed as bisphosphonate e-polylysine) was 1.10 μm; in test [1] (listed as bisphosphonylated epsilon-polylysine), 1.1 μm. Moreover, the “C: B−A (increase of depth of penetration by acid)” value in test [2] (acetic acid 0.1N, 30 min, 37° C. after 5 days in oral cavity) worked out at 3.9 μm. Besides, in test [2] (acetic acid 0.1N, pH 5, 30 min, 37° C.), the “B: hardness after radiation and 5 days in the oral cavity and treatment with acetic acid” value stood at 44.5 μm. For the same substance, the “A: hardness after radiation and 5 days residence in the oral cavity” value in test [2] (samples later treated with acid) was determined as 40.6 μm.

The values are drawn from patent US20080226565A1, “Anticariogenic Proteins & Peptides & Saccharides” (priority 2004, published 2008).
